Assay results taken from publication PMC7284918, “In-Depth Characterization of EpiIntestinal Microtissue as a Model for Intestinal Drug Absorption and Metabolism in Human” (Pharmaceutics, 2020).
Like-named read-outs stand apart in the source and are kept apart here. Marks after values point to notes of the source that are not given here.

Assays:
[1] = test system: EpiIntestinal microtissues; experiment: Intestinal first-pass availability in EpiIntestinal microtissues; assay type: in vitro ADME, human
Protocol: (§1) Compounds were diluted in culture media to a final concentration of 10 µM and added to the apical (donor) compartment (total volume: 100 µL for EpiIntestinal and 200 µL for Caco-2). After the incubation at 37 °C for 2, 4, 6, and 24 h, samples (50 µL) were taken from the basal (receiver) compartment (total volume: 5000 µL for EpiIntestinal and 800 µL for Caco-2). After the last timepoint, samples from the donor compartments and the cell lysates were also collected. Compound concentrations in the samples were determined by HPLC-MS/MS (Section 2.3).
(§2) GI first-pass availability of the tested compounds was expressed as fraction (%) of the total amount of a compound added to the donor compartment recovered in the receiver compartment.

Caco-2 cells [2] = experiment: Intestinal first-pass availability in Caco-2; assay type: in vitro ADME, human; conditions: Caco-2
Protocol: as §1, §2

[3] = Clinical pharmacokinetic data and calculated Fa × Fg in human; assay type: in vivo; conditions: calculated from clinical pharmacokinetic data (Section 2.8, Table 2)
Description: A set of 12 marketed drugs are selected for the evaluation of EpiIntestinal microtissues.

[4] = Intestinal first-pass availability in EpiIntestinal microtissues; assay type: in vitro ADME, human; conditions: human, 10 µM apical
Protocol: as §1, §2

[5] = human, cited from earlier work
[6] = test system: EpiIntestinal microtissues; experiment: Metabolite identification in EpiIntestinal microtissues; assay type: in vitro ADME, human; conditions: 10 µM, peak areas at end of incubation
Protocol: (§3) Raloxifene or ezetimibe (10 µM) in culture media was added to the apical compartment of EpiIntestinal microtissues or incubated with cryopreserved human intestinal mucosa (HIM). […] Analysis was performed on a LC-MS system containing a Vanquish UPLC (ThermoFisher Scientific, San Jose, CA, USA) coupled to an Orbitrap FusionTribrid high resolution mass spectrometer (ThermoFisher Scientific). Structure elucidation was based on exact mass measurements in combination with the interpretation of fragment spectra.

[7] = test system: human intestinal mucosa (HIM); experiment: Metabolite identification in cryopreserved human intestinal mucosa (HIM); assay type: in vitro ADME; conditions: 10 µM, peak areas at end of incubation
Protocol: as §3

Caco-2 cells [8] = experiment: Bidirectional permeability assay in Caco-2; assay type: in vitro ADME, human; conditions: Ko-143 3 µM, zosuquidar 5 µM
[9] = test system: EpiIntestinal microtissues; experiment: Bidirectional permeability assay in EpiIntestinal microtissues; assay type: in vitro ADME, human; conditions: Ko-143 3 µM, zosuquidar 5 µM
Protocol: Caco-2 cells were obtained from Leibniz Institute DSMZ-German Collection of Microorganisms and Cell Cultures (Braunschweig, Germany) and cultured in DMEM containing 10% FCS, 1% NEAA, 2 mM Glutamin, 100 U/mL Penicillin and 100 µg/mL Streptomycin. […] EpiIntestinal microtissues were obtained from MatTek (Bratislav, Slovakia) and cultured according to the manufacturer’s instruction (24-well format for bidirectional permeability assays and GI firstpass availability assays and 96-well format for screening of DME activities).
Bidirectional permeability assays were performed as described previously. […] In indicated experiments, inhibitors were added to both compartments. Cells were incubated with the compounds for up to 2 h. Samples from the opposite compartment were taken at different timepoints. […] Prior to bioanalysis samples were spiked with internal standard solution and diluted with acetonitrile (ACN) for protein precipitation. Measurement was operated in multiple reaction monitoring (MRM) mode. Quantification was performed using external calibration. Apparent permeability coefficients in the apical to basal direction (Papp,AB) and in the basal to apical direction (Papp,BA) and efflux were calculated as follows Papp,AB=QAB/(C0×s×t) Papp,BA=QBA/(C0×s×t) Efflux=Papp,BA/Papp,AB where Q is the amount of compound recovered in the receiver compartment after the incubation time t, C0 the initial compound concentration given to the donor compartment, and s the surface area of the Transwell inserts. Efflux ratio is calculated as the quotient of Papp,BA to Papp,AB. […] In addition, Transepithelial electrical resistance (TEER) values are measured for each plate before the permeability assay and total recovery in donor and receiver compartments was determined for each compound. All these parameters (efflux of apafant, Papp values of the low permeable compound, TEER values, and total recovery) are used to ensure the quality of the assays.

[10] = Intestinal first-pass availability in Caco-2; assay type: in vitro ADME, human; conditions: human, Caco-2, Caco-2, 10 µM apical, read-out: Recovery in basal/receiver compartment after 24 h
Protocol: as §1, §2

CYP3A4 = conditions: Caco-2
Protocol: (§4) For measurements of DME activities in EpiIntestinal microtissues and Caco-2 cells, both were cultured in 96-well Transwell inserts. Drugs (Table 1) were dissolved in the respective solvent at 200x concentration and diluted in a pre-warmed transport buffer. Diluted substrate solution was applied to the apical (100 µL) and basal (250 µL) compartment of the Transwell and incubated at 37 °C and 5% CO2 and 60 rpm continuous shaking. DME activities were determined by monitoring metabolite formation in basal compartment over time (0, 0.5, 1, 2, 3 and 4 h) with LC-MS/MS. […] Chromatographic separation of samples was performed on YMC Triart C18 (1.9 µm, 30 × 2 mm; YMC Europe, Dinslaken, Germany) LC analytical column. Quantification of all metabolites listed in Table 1 was achieved by the use of calibration curves for the individual metabolites with appropriate concentration ranges.
(§5) A total of 10 µL of the incubation sample were diluted with 90 µL of water containing 10–20% ACN or methanol, 0.1% formic acid and the respective internal standard. To analyze the intracellular metabolite concentration, cells on Transwell inserts were washed twice with ice-cold PBS and stored at −80 °C for 20 min. Afterwards, 150 µL 50% ACN diluted with transport buffer was added to the cells and incubated at room temperature for 30 min. Cell lysate was transferred to a fresh 96-well plate and centrifuged at 4 °C, 4000 rpm for 10 min. Subsequently, 10 µL of the supernatant were diluted with 90 µl water containing 10–20% ACN or methanol, 0.1% formic acid and the respective internal standard. A total of 2 µL sample was injected into the LC-MS/MS system operated with an electrospray ionization source.

in vitro = conditions: human, plasma
Description: Blood CLb can be converted from plasma clearance CLp with the blood-to-plasma ratio RB: CLb=CLp/RB

CYP1A2 [11] = target: T1, CYP1A2 (Homo sapiens, UniProt P05177)
T1 sequence (P05177 1-516): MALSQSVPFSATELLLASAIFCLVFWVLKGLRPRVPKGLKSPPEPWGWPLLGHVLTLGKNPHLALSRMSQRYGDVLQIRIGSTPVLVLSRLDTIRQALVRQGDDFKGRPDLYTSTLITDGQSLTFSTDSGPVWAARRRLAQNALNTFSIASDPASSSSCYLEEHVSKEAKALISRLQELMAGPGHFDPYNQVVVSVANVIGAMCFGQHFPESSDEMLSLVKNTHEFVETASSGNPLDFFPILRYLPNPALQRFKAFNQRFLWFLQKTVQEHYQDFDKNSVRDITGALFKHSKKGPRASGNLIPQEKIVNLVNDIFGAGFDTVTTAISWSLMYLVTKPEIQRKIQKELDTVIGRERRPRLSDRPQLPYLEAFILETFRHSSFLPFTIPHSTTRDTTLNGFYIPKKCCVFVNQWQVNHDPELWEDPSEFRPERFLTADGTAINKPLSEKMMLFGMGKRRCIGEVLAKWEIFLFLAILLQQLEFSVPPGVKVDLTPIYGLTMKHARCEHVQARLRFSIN
Protocol: as §4, §5

CYP1A2 [12] = target: T1, CYP1A2; remark: listed apart in the source
Protocol: as §4
A total of 10 µL of the incubation sample were diluted with 90 µL of water containing 10–20% ACN or methanol, 0.1% formic acid and the respective internal standard. To analyze the intracellular metabolite concentration, cells on Transwell inserts were washed twice with ice-cold PBS and stored at −80 °C for 20 min. Afterwards, 150 µL 50% ACN diluted with transport buffer was added to the cells and incubated at room temperature for 30 min. […]

[13] = EpiIntestinal microtissues, GI firstpass availability, read-out: Recovery in Basal Comp. @ 24h (%)
[14] = clinical, ref Prescription information at fda.gov

COc1ccc(CCN2CCC(Nc3nc4ccccc4n3Cc3ccc(F)cc3)CC2)cc1 [Astemizole]
Availability in the receiver compartment on co-incubation with CYP2J2 inhibitor ([1]; 10 µM apical, Ebastein (50 µM)): increased
Availability in the receiver compartment on co-incubation with CYP2J2 inhibitor (Caco-2 cells [2]; 10 µM apical, Ebastein (50 µM)): increased

CC(C)NCC(O)COc1ccc(CC(N)=O)cc1 (centres unmarked) [Atenolol]
Fa × Fg in Human (%) [3]: 50%
recovery at 24 h, 10 µM [4, 13]: 86%

CC(C)c1c(C(=O)Nc2ccccc2)c(-c2ccccc2)c(-c2ccc(F)cc2)n1CC[C@@H](O)C[C@@H](O)CC(=O)O [Atorvastatin]
recovery at 24 h, 10 µM [4, 13]: 43%

O=C1CC2(CCCC2)CC(=O)N1CCCCN1CCN(c2ncccn2)CC1 [Buspirone]
Fa × Fg in Human (%) [3]: 70%
recovery at 24 h, 10 µM [4, 13]: 60%
CLp (plasma clearance) ([5]; clinical): 28.3 [8] mL/min/kg
fe (fraction of renal excretion) ([5]; clinical): 0.45 [19]

O=C1[C@H](CC[C@H](O)c2ccc(F)cc2)[C@@H](c2ccc(O)cc2)N1c1ccc(F)cc1 [Ezetimibe]
Parent (% of parent drug at T0) [6]: 8.4 % of parent drug at T0
Parent (% of parent drug at T0) [7]: 40.3 % of parent drug at T0

CCOC(=O)C1=C(C)NC(C)=C(C(=O)OC)C1c1cccc(Cl)c1Cl (centres unmarked) [Felodipine]
recovery at 24 h, 10 µM [4, 13]: 47%

CC(C)(C)NC(=O)[C@@H]1CN(Cc2cccnc2)CCN1C[C@@H](O)C[C@@H](Cc1ccccc1)C(=O)N[C@H]1c2ccccc2C[C@H]1O [Indinavir]
Fa × Fg in Human (%) [3]: 100%
recovery at 24 h, 10 µM [4, 13]: 53%
F (total oral availability) ([5]; clinical): 0.6 [8]
fe (fraction of renal excretion) ([5]; clinical): 0.085 [16]

CCc1c2c(nc3ccc(OC(=O)N4CCC(N5CCCCC5)CC4)cc13)-c1cc3c(c(=O)n1C2)COC(=O)[C@]3(O)CC [Irinotecan]
recovery at 24 h, 10 µM [4, 13]: 62%

COc1ccc2c3c([nH]c2c1)[C@H](CC(C)C)N1C(=O)[C@H](CCC(=O)OC(C)(C)C)NC(=O)[C@@H]1C3 [Ko-143]
Effect of inhibitor on the efflux of rosuvastatin (Caco-2 cells [8]): strongly reduced
Effect of inhibitor on the efflux of rosuvastatin [9]: strongly reduced

Cc1ncc2n1-c1ccc(Cl)cc1C(c1ccccc1F)=NC2 [Midazolam]
Fa × Fg in Human (%) [3]: 59%
recovery at 24 h, 10 µM ([4]; with CYP3A4 inhibitor CYP3cide (1 µM), read-out: Recovery in basal/receiver compartment after 24 h): 75.9%
recovery at 24 h, 10 µM [4, 13]: 47%
recovery at 24 h, 10 µM ([4]; EpiIntestinal microtissues, no inhibitor, read-out: Recovery in basal/receiver compartment after 24 h): 46.7%
1-hydroxymidazolam (CYP3A4-selective metabolite) detected ([1]; midazolam 10 µM apical, no inhibitor): substantial amount
recovery at 24 h, 10 µM ([10]; no inhibitor): 81%
recovery at 24 h, 10 µM ([10]; with CYP3A4 inhibitor CYP3cide (1 µM)): 87.9%
1-hydroxymidazolam (CYP3A4-selective metabolite) detected (Caco-2 cells [2]; midazolam 10 µM apical): negligible amount
Intracellular Metabolite (% of Total) (CYP3A4; CYP3A4/Midazolam, metabolite 1-OH-Midazolam): BLQ
Enzyme Activities Mean/SD (CYP3A4; CYP3A4/Midazolam, rate of 1-OH-Midazolam formation in supernatant): BLQ
blood plasma ratio (in vitro): 0.64
F (total oral availability) ([5]; clinical): 0.4 [8]
fe (fraction of renal excretion) ([5]; clinical): 0 [16]

COC(=O)C1=C(C)NC(C)=C(C(=O)OC)C1c1ccccc1[N+](=O)[O-] [Nifedipine]
fe (fraction of renal excretion) ([5]; in vivo): 0 [16]

CCN(CC)CC#CCOC(=O)C(O)(c1ccccc1)C1CCCCC1 (centres unmarked) [Oxybutynin]
Fa × Fg in Human (%) [3]: 9%
F (total oral availability) ([5]; clinical): 0.06 [8]
fe (fraction of renal excretion) [5, 14]: 0 *
CLp (plasma clearance) ([5]; in vivo): 5.1 [15] mL/min/kg

CCOc1ccc(NC(C)=O)cc1 [Phenacetin]
Intracellular Metabolite (% of Total) (CYP1A2 [11]): BLQ
Enzyme Activities Mean/SD (CYP1A2 [11]; human): 123.1/4.8 pmol/h/cm^2
Intracellular Metabolite (% of Total) (CYP1A2 [12]): BLQ
Enzyme Activities Mean/SD (CYP1A2 [12]; human): 17.4/3.0 pmol/h/cm^2

O=C(c1ccc(OCCN2CCCCC2)cc1)c1c(-c2ccc(O)cc2)sc2cc(O)ccc12 [Raloxifene]
Parent (% of parent drug at T0) [6]: 2.4 % of parent drug at T0
Parent (% of parent drug at T0) [7]: 33.2 % of parent drug at T0

CC(C)(C)NC(=O)[C@@H]1C[C@@H]2CCCC[C@@H]2CN1C[C@@H](O)[C@H](Cc1ccccc1)NC(=O)[C@H](CC(N)=O)NC(=O)c1ccc2ccccc2n1 [Saquinavir]
Fa × Fg in Human (%) [3]: 25%
recovery at 24 h, 10 µM [4, 13]: 18%
F (total oral availability) ([5]; clinical): 0.04 [8]
fe (fraction of renal excretion) [5, 14]: 0.01 *

C[C@]12CC[C@H]3[C@@H](CCC4=CC(=O)CC[C@@]43C)[C@@H]1CC[C@@H]2O [Testosterone]
Intracellular Metabolite (% of Total) (CYP3A4; CYP3A4/Testosterone, metabolite 6β-OH-Testosterone): BLQ

O[C@@H](COc1cccc2ncccc12)CN1CCN([C@@H]2c3ccccc3[C@@H]3[C@H](c4ccccc42)C3(F)F)CC1 [zosuquidar]
Effect of inhibitor on the efflux of rosuvastatin (Caco-2 cells [8]): minor effect
Effect of inhibitor on the efflux of rosuvastatin [9]: minor effect
